Assay: molar heat capacity at constant pressure
Conditions: 101.33 kPa, Crystal, Small sample (50 mg) DSC

[Na+].[O]=[Re](=[O])(=[O])[O-] [sodium perrhenate]
Conditions	molar heat capacity at constant pressure [J/K/mol]
298.15 K	118.8
323.15 K	122.2
348.15 K	125.5
373.15 K	128.9
398.15 K	131.8
423.15 K	135.1
448.15 K	137.2
473.15 K	139.7
498.15 K	142.3
523.15 K	144.8
548.15 K	146.9
573.15 K	148.1
598.15 K	149.4

Source: the NIST ThermoML archive (doi:10.1016/j.jct.2009.04.004)
